Source: ChEMBL document CHEMBL1158270, “Triangulynes A-H and trangulynic acid, new cytotxic polyacetylenes from the marine sponge Pellina triangulata” (1996)

Experiments:
Format in all cases: functional
[1] = system: NCI-H460; test: Cytotoxicity against human NCI-H460 cells
[2] = system: LOX IMVI; test: Cytotoxicity against human LOXIMVI cells
[3] = system: NCI-H23; test: Cytotoxicity against human NCI-H23 cells
[4] = system: K562; test: Cytotoxicity against human K562 cells
[5] = system: CCRF-CEM; test: Cytotoxicity against human CCRF-CEM cells
[6] = system: OVCAR-4; test: Cytotoxicity against human OVCAR4 cells
[7] = system: SN12C; test: Cytotoxicity against human SN12C cells
[8] = system: 786-0; test: Cytotoxicity against human 786-0 cells
[9] = system: BT-549; test: Cytotoxicity against human BT549 cells
[10] = system: NCI-H226; test: Cytotoxicity against human NCI-H226 cells
[11] = system: UACC-62; test: Cytotoxicity against human UACC62 cells
[12] = system: MDA-MB-231; test: Cytotoxicity against human MDA-MB-231 cells
[13] = system: RXF 393; test: Cytotoxicity against human RXF393 cells
[14] = system: SK-MEL-5; test: Cytotoxicity against human SK-MEL-5 cells
[15] = Cytotoxicity against human Hs 578T cells
[16] = system: M14; test: Cytotoxicity against human M14 cells
[17] = system: MDA-MB-435; test: Cytotoxicity against human MDA-MB-435 cells
[18] = system: HT-29; test: Cytotoxicity against human HT29 cells
[19] = system: SF-539; test: Cytotoxicity against human SF539 cells
[20] = system: NCI-H322M; test: Cytotoxicity against human NCI-H322M cells
[21] = system: UO-31; test: Cytotoxicity against human UO31 cells
[22] = system: SR; test: Cytotoxicity against human SR cells
[23] = system: ACHN; test: Cytotoxicity against human ACHN cells
[24] = system: CAKI-1; test: Cytotoxicity against human Caki1 cells
[25] = system: OVCAR-8; test: Cytotoxicity against human OVCAR8 cells
[26] = system: MOLT-4; test: Cytotoxicity against human MOLT4 cells
[27] = system: SNB-75; test: Cytotoxicity against human SNB75 cells
[28] = system: HCC 2998; test: Cytotoxicity against human HCC2998 cells
[29] = system: HCT-116; test: Cytotoxicity against human HCT116 cells
[30] = system: A549; test: Cytotoxicity against human A549 cells
[31] = system: KM12; test: Cytotoxicity against human KM12 cells
[32] = system: HL-60; test: Cytotoxicity against human HL60 cells
[33] = system: SK-MEL-28; test: Cytotoxicity against human SK-MEL-28 cells
[34] = system: UACC-257; test: Cytotoxicity against human UACC257 cells
[35] = system: EKVX; test: Cytotoxicity against human EKVX cells
[36] = system: RPMI-8226; test: Cytotoxicity against human RPMI8226 cells
[37] = system: U-251; test: Cytotoxicity against human U251 cells
[38] = system: COLO 205; test: Cytotoxicity against human COLO205 cells
[39] = system: SNB-19; test: Cytotoxicity against human SNB19 cells
[40] = system: SW-620; test: Cytotoxicity against human SW620 cells
[41] = system: MCF7; test: Cytotoxicity against human MCF7 cells
[42] = system: SK-MEL-2; test: Cytotoxicity against human SK-MEL-2 cells
[43] = system: A498; test: Cytotoxicity against human A498 cells
[44] = system: OVCAR-5; test: Cytotoxicity against human OVCAR5 cells
[45] = system: SF-295; test: Cytotoxicity against human SF295 cells
[46] = read-out: pLC50 (the source's name) (converted)

## C#C[C@H](O)/C=C/CCCCCCCCCC/C=C\CCCCCCC[C@H](O)C#CC#CC#CCO [TRIANGULYNE A]
[1]
  GI50: 347 nM
[1]; [46]
  CC50: 42700 nM
[1]; read-out: pTGI (converted)
  TGI: 1820 nM
[2]
  GI50: 141 nM
  LC50: 7940 nM
[2]; read-out: pTGI (converted)
  TGI: 363 nM
[3]
  GI50: 257 nM
[3]; [46]
  CC50: 14100 nM
[3]; read-out: pTGI (converted)
  TGI: 1290 nM
[4]
  GI50: 372 nM
  LC50: 37200 nM
[4]; read-out: pTGI (converted)
  TGI: 2290 nM
[5]
  GI50: 170 nM
  LC50: 33900 nM
[5]; read-out: pTGI (converted)
  TGI: 776 nM
[6]
  GI50: 851 nM
[6]; [46]
  CC50: 38000 nM
[6]; read-out: pTGI (converted)
  TGI: 6310 nM
[7]
  GI50: 1410 nM
[7]; [46]
  CC50: 32400 nM
[7]; read-out: pTGI (converted)
  TGI: 11000 nM
[8]
  GI50: 288 nM
[8]; [46]
  CC50: 3980 nM
[8]; read-out: pTGI (converted)
  TGI: 1100 nM
[9]
  GI50: 794 nM
[9]; [46]
  CC50: 11000 nM
[9]; read-out: pTGI (converted)
  TGI: 2400 nM
[10]
  GI50: 603 nM
[10]; [46]
  CC50: 8130 nM
[10]; read-out: pTGI (converted)
  TGI: 1910 nM
[11]
  GI50: 229 nM
[11]; [46]
  CC50: 9120 nM
[11]; read-out: pTGI (converted)
  TGI: 646 nM
[12]
  GI50: 229 nM
[12]; [46]
  CC50: 9120 nM
[12]; read-out: pTGI (converted)
  TGI: 603 nM
[13]
  GI50: 339 nM
[13]; [46]
  CC50: 18200 nM
[13]; read-out: pTGI (converted)
  TGI: 1290 nM
[14]
  GI50: 72.4 nM
[14]; [46]
  CC50: 479 nM
[14]; read-out: pTGI (converted)
  TGI: 200 nM
[15]
  GI50: 2400 nM
[15]; [46]
  CC50: 57500 nM
[15]; read-out: pTGI (converted)
  TGI: 8320 nM
[16]
  GI50: 158 nM
  LC50: 3470 nM
[16]; read-out: pTGI (converted)
  TGI: 813 nM
[17]
  GI50: 170 nM
[17]; [46]
  CC50: 4470 nM
[17]; read-out: pTGI (converted)
  TGI: 832 nM
[18]
  GI50: 363 nM
  LC50: 3630 nM
[18]; read-out: pTGI (converted)
  TGI: 1290 nM
[19]
  GI50: 1100 nM
[19]; [46]
  CC50: 19100 nM
[19]; read-out: pTGI (converted)
  TGI: 3310 nM
[20]
  GI50: 3310 nM
[20]; [46]
  CC50: 57500 nM
[20]; read-out: pTGI (converted)
  TGI: 12000 nM
[21]
  GI50: 1290 nM
[21]; [46]
  CC50: 5500 nM
[21]; read-out: pTGI (converted)
  TGI: 2690 nM
[22]
  GI50: 182 nM
  LC50: 100000 nM
[22]; read-out: pTGI (converted)
  TGI: 3240 nM
[23]
  GI50: 776 nM
[23]; [46]
  CC50: 32400 nM
[23]; read-out: pTGI (converted)
  TGI: 7240 nM
[24]
  GI50: 251 nM
[24]; [46]
  CC50: 3390 nM
[24]; read-out: pTGI (converted)
  TGI: 676 nM
[25]
  GI50: 129 nM
[25]; [46]
  CC50: 21900 nM
[25]; read-out: pTGI (converted)
  TGI: 851 nM
[26]
  GI50: 209 nM
[26]; [46]
  CC50: 67600 nM
[26]; read-out: pTGI (converted)
  TGI: 813 nM
[27]
  GI50: 2000 nM
[27]; [46]
  CC50: 15800 nM
[27]; read-out: pTGI (converted)
  TGI: 6610 nM
[28]
  GI50: 257 nM
  LC50: 2190 nM
[28]; read-out: pTGI (converted)
  TGI: 692 nM
[29]
  GI50: 129 nM
  LC50: 3470 nM
[29]; read-out: pTGI (converted)
  TGI: 661 nM
[30]
  GI50: 339 nM
[30]; [46]
  CC50: 47900 nM
[30]; read-out: pTGI (converted)
  TGI: 5750 nM
[31]
  GI50: 170 nM
  LC50: 1100 nM
[31]; read-out: pTGI (converted)
  TGI: 380 nM
[32]
  GI50: 83.2 nM
  LC50: 25100 nM
[32]; read-out: pTGI (converted)
  TGI: 3630 nM
[33]
  GI50: 708 nM
[33]; [46]
  CC50: 12000 nM
[33]; read-out: pTGI (converted)
  TGI: 2290 nM
[34]
  GI50: 513 nM
[34]; [46]
  CC50: 8130 nM
[34]; read-out: pTGI (converted)
  TGI: 2090 nM
[35]
  GI50: 871 nM
[35]; [46]
  CC50: 6760 nM
[35]; read-out: pTGI (converted)
  TGI: 2400 nM
[36]
  GI50: 30.9 nM
  LC50: 100000 nM
[36]; read-out: pTGI (converted)
  TGI: 1000 nM
[37]
  GI50: 813 nM
[37]; [46]
  CC50: 5250 nM
[37]; read-out: pTGI (converted)
  TGI: 2190 nM
[38]
  GI50: 200 nM
  LC50: 2290 nM
[38]; read-out: pTGI (converted)
  TGI: 417 nM
[39]
  GI50: 3390 nM
[39]; [46]
  CC50: 52500 nM
[39]; read-out: pTGI (converted)
  TGI: 12000 nM
[40]
  GI50: 339 nM
  LC50: 9330 nM
[40]; read-out: pTGI (converted)
  TGI: 1290 nM
[41]
  GI50: 1580 nM
[41]; [46]
  CC50: 25700 nM
[41]; read-out: pTGI (converted)
  TGI: 6030 nM
[42]
  GI50: 251 nM
[42]; [46]
  CC50: 7760 nM
[42]; read-out: pTGI (converted)
  TGI: 891 nM
[43]
  GI50: 525 nM
[43]; [46]
  CC50: 5250 nM
[43]; read-out: pTGI (converted)
  TGI: 1580 nM
[44]
  GI50: 4470 nM
[44]; [46]
  CC50: 34700 nM
[44]; read-out: pTGI (converted)
  TGI: 12000 nM
[45]
  GI50: 2880 nM
[45]; [46]
  CC50: 51300 nM
[45]; read-out: pTGI (converted)
  TGI: 9550 nM
